Experiments:
[1] = biological target: T1, BDNF/NT-3 growth factors receptor (Homo sapiens, UniProt Q16620); assay: Inhibition of wild type human N-terminal GST-fusion tagged TRKB kinase domain (456 to 822 residues) expressed in baculovirus expression system by HTRF assay
[2] = biological target: T1, BDNF/NT-3 growth factors receptor; assay: Binding affinity to TRKB (unknown origin) assessed as dimerization by size exclusion chromatography

T1 sequence (Q16620 whole entry, the tested form may be a part): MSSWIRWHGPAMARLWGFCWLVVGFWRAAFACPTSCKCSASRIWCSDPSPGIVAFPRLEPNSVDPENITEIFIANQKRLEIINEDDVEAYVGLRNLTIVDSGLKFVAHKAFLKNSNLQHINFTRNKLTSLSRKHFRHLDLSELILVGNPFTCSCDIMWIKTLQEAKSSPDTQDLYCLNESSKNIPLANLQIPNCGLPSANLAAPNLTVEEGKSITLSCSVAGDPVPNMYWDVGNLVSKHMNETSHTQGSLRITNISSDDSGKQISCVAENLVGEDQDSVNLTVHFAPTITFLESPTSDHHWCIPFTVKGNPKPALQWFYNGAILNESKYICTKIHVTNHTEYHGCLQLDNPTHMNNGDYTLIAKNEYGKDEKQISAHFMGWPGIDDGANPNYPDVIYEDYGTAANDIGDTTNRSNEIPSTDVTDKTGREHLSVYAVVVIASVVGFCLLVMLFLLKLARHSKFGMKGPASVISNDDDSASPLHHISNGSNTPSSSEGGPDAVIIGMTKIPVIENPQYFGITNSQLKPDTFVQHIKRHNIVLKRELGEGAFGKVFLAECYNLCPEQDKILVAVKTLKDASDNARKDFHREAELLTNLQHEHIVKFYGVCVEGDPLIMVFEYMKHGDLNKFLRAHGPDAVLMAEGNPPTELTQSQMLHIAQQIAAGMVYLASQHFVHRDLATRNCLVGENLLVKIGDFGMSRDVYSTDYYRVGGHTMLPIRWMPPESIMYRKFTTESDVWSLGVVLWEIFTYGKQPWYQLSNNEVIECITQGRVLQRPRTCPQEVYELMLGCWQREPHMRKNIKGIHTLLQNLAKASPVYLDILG

Nc1c(N2CCN(C3CCCCC3)CC2)cc(Nc2ccc(C(=O)O)cc2)c2c1C(=O)c1ccccc1C2=O
IC50 [1]: 94 µM | Activity [2]: Not Active

CC(C)Oc1cc(Nc2nc(N[C@@H](C)c3ccc(F)cn3)ncc2Cl)n[nH]1
IC50 [1]: 0.00093 µM

— ChEMBL document CHEMBL4342423, “An isoform-selective inhibitor of tropomyosin receptor kinase A behaves as molecular glue” (Bioorg Med Chem Lett, 2020)
